Results taken from US7595401B2, “Therapeutic compounds and their use in cancer” (Myriad Pharmaceuticals, Inc., priority 2006, dated 2009).

System: purified human Hsp90
Experiment: Binding Assay: fluorescence polarization with BODIPY-labeled geldanamycin
Details: 5 μM compound, BODIPY-GM 10 nM, Hsp90 30 nM
Summary of the method: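 Fluorescence polarization competition with BODIPY-geldanamycin (10 nM final) and human Hsp90 (30 nM final) in HEPES-KOH pH 7.3 buffer with molybdate, NP-40, DTT; 2% DMSO, overnight at room temperature. Read 485/530 nm; percent inhibition from mP normalized to DMSO controls, fluorescent-compound points excluded.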

In order of falling “% Inhibition at 5 μM Compound Concentration” value:
1. COc1ccc(OC)c(Sc2nc3c(N)ncnc3n2CCc2ccccc2C)c1 [Example 69, 8-(2,5-Dimethoxy-phenylsulfanyl)-9-(2-o-tolyl-ethyl)-9H-purin-6-ylamine]  69%
2. COc1ccc(OC)c(Sc2nc3c(N)ncnc3n2CCc2cccc3ccccc23)c1 [Example 67, 8-(2,5-Dimethoxy-phenylsulfanyl)-9-(2-naphthalen-1-yl-ethyl)-9H-purin-6-ylamine]  56%
3. CCOc1cc(CCn2c(Sc3cc4c(cc3Br)OCO4)nc3c(N)ncnc32)ccc1OC [Example 117, 8-(6-Bromo-benzo[1,3]dioxol-5-ylsulfanyl)-9-[2-(3-ethoxy-4-methoxy-phenyl)-ethyl]-9H-purin-6-ylamine]  54%
4. CC(=O)N1CCC(CCn2cnc(N)c3nc(Sc4cc5c(cc4Br)OCO5)nc2-3)CC1 [Example 365, 3-[2-(1-Acetylpiperidin-4-yl)ethyl]-8-[(6-bromo-1,3-benzodioxol-5-yl)thio]-3H-purin-6-amine]  31%
5. COc1ccc(OC)c(Sc2nc3c(N)ncn(CCc4cccs4)c-3n2)c1 [Example 200, 8-(2,5-dimethoxy-phenylsulfanyl)-3-(2-thiophen-2-yl-ethyl)-3H-purin-6-ylamine]  18%
6. Nc1ncn(CCc2ccccc2)c2nc(Sc3ccc4c(c3)OCO4)nc1-2 [Example 5, 8-(benzo[1,3]dioxol-5-ylsulfanyl)-3-phenethyl-3H-purin-6-ylamine]  8%
7. CCOc1ccc(OCC)c(Sc2nc3c(N)ncn(CCc4ccccc4)c-3n2)c1 [Example 190, 8-(2,5-diethoxy-phenylsulfanyl)-3-phenethyl-3H-purin-6-ylamine]  8%
8. COc1ccc(OC)c(Sc2nc3c(N)ncn(CCc4cc(OC)c(OC)c(OC)c4)c-3n2)c1 [Example 90, 8-(2,5-Dimethoxy-phenylsulfanyl)-3-[2-(3,4,5-trimethoxy-phenyl)-ethyl]-3H-purin-6-ylamine]  6%
9. COc1ccc(OC)c(Sc2nc3c(N)ncn(CCc4cc(C)ccc4C)c-3n2)c1 [Example 116, 8-(2,5-dimethoxy-phenylsulfanyl)-3-[2-(2,5-dimethyl-phenyl)-ethyl]-3H-purin-6-ylamine]  0%
10. Nc1ncn(CCC23CC4CC(CC(C4)C2)C3)c2nc(Sc3cc4c(cc3Br)OCO4)nc1-2 [Example 357, 3-[2-(1-Adamantyl)ethyl]-8-[(6-bromo-1,3-benzodioxol-5-yl)thio]-3H-purin-6-amine]  0%
11. Nc1ncn(CCCn2cccc2)c2nc(Sc3ccc4c(c3)OCO4)nc1-2 [Example 52, 8-(benzo[1,3]dioxol-5-ylsulfanyl)-3-(3-pyrrol-1-yl-propyl)-3H-purin-6-ylamine]  0%

Same assay, conditions: BODIPY-GM 10 nM, Hsp90 30 nM

Going from `Nc1ncnc2c1nc(Sc1cc3c(cc1Br)OCO3)n2CCc1ccsc1` [Example 201, 8-(6-Bromo-benzo[1,3]dioxol-5-ylsulfanyl)-9-(2-thiophen-3-yl-ethyl)-9H-purin-6-ylamine] to `COc1ccc(CCn2c(Sc3cc4c(cc3Br)OCO4)nc3c(N)ncnc32)cc1OC` [Example 296, 8-[(6-Bromo-1,3-benzodioxol-5-yl)thio]-9-[2-(3,4-dimethoxyphenyl)ethyl]-9H-purin-6-amine], the IC50 rises from 72 nM to 350 nM (4.9-fold). The first is the more potent here.

Compared with `CC(C)N1CCC(CCn2c(Sc3cc4c(cc3Br)OCO4)nc3c(N)ncnc32)CC1` [Example 582, 8-[(6-Bromo-1,3-benzodioxol-5-yl)thio]-9-[2-(1-isopropylpiperidin-4-yl)ethyl]-9 H-purin-6-amine], `CN(C)CC(=O)N1CCC(CCn2c(Sc3cc4c(cc3Br)OCO4)nc3c(N)ncnc32)CC1` [Example 707, 8-[(6-Bromo-1,3-benzodioxol-5-yl)thio]-9-(2-{1-[(dimethylamino)acetyl]piperidin-4-yl}ethyl)-9H-purin-6-amine] is 13-fold lower in IC50: 900 nM for the first, 70 nM for the second.

Compared with `COc1ccc(OC)c(Sc2nc3c(N)ncnc3n2C2Cc3ccccc3C2O)c1` (stereo not shown) [Example 235, 2-{6-Amino-8-[(2,5-dimethoxyphenyl)thio]-9H-purin-9-yl}indan-1-ol], `COc1ccc(OC)c(Sc2nc3c(N)ncnc3n2CCc2ccccc2C)c1` [Example 69, 8-(2,5-Dimethoxy-phenylsulfanyl)-9-(2-o-tolyl-ethyl)-9H-purin-6-ylamine] is lower in IC50: greater than 8000 nM for the first, 250 nM for the second.

`CC(=O)N1CCN(CCn2c(Sc3cc4c(cc3Br)OCO4)nc3c(N)ncnc32)CC1` [Example 382, 9-[2-(4-Acetylpiperazin-1-yl)ethyl]-8-[(6-bromo-1,3-benzodioxol-5-yl)thio]-9H-purin-6-amine] and `CC(C)(C)OC(=O)N1CCC(CCn2c(Sc3cc4c(cc3Br)OCO4)nc3c(N)ncnc32)CC1` [Example 341, tert-Butyl 4-(2-{6-amino-8-[(6-bromo-1,3-benzodioxol-5-yl)thio]-9H-purin-9-yl}ethyl)piperidine-1-carboxylate] are within 1.5-fold of each other in IC50: 140 nM for the first, 200 nM for the second.

Going from `COc1ccc(OC)c(Sc2nc3c(N)ncnc3n2CCc2ccc(OC)c(OC)c2)c1` [Example 21, 9-[2-(3,4-Dimethoxy-phenyl)-ethyl]-8-(2,5-dimethoxy-phenylsulfanyl)-9H-purin-6-ylamine] to `COc1ccc(OC)c(Sc2nc3c(N)ncnc3n2CCc2ccsc2)c1` [Example 197, 8-(2,5-Dimethoxy-phenylsulfanyl)-9-(2-thiophen-3-yl-ethyl)-9H-purin-6-ylamine], the IC50 falls from greater than 10000 nM to 170 nM. The second is the more potent here.

Going from `CCOC(=O)CNC(=O)N1CCC(CCn2c(Sc3cc4c(cc3Br)OCO4)nc3c(N)ncnc32)CC1` [Example 434, Ethyl N-{[4-(2-{6-amino-8-[(6-bromo-1,3-benzodioxol-5-yl)thio]-9H-purin-9-yl}ethyl)piperidin-1-yl]carbonyl}glycinate] to `Nc1ncnc2c1nc(Sc1cc3c(cc1Br)OCO3)n2CCC(N)C1CCCC1` (stereo not shown) [Example 691, 9-(3-Amino-3-cyclopentyl-propyl)-8-(6-bromo-benzo[1,3]dioxol-5-ylsulfanyl)-9H-purin-6-ylamine], the IC50 rises from 37 nM to 125 nM (3.4-fold).

First: CCOc1cc(CCn2c(Sc3cc4c(cc3Br)OCO4)nc3c(N)ncnc32)ccc1OC [Example 117, 8-(6-Bromo-benzo[1,3]dioxol-5-ylsulfanyl)-9-[2-(3-ethoxy-4-methoxy-phenyl)-ethyl]-9H-purin-6-ylamine]
Second: CCCCNC(=O)Nc1ccc(CCn2c(Sc3cc4c(cc3Br)OCO4)nc3c(N)ncnc32)cc1 [Example 281, N-[4-(2-{6-Amino-8-[(6-bromo-1,3-benzodioxol-5-yl)thio]-9H-purin-9-yl}ethyl)phenyl]-N′-butylurea]
The IC50 of the first is 2.5-fold higher: 300 nM for the first, 120 nM for the second. The second is the more potent here.

Compared with `COc1ccc(OC)c(Sc2nc3c(N)ncnc3n2CCc2cccc3ccccc23)c1` [Example 67, 8-(2,5-Dimethoxy-phenylsulfanyl)-9-(2-naphthalen-1-yl-ethyl)-9H-purin-6-ylamine], `COc1ccc(OC)c(Sc2nc3c(N)ncnc3n2Cc2ccc(F)cc2)c1` [Example 266, 8-[(2,5-Dimethoxyphenyl)thio]-9-(4-fluorobenzyl)-9H-purin-6-amine] is 8-fold higher in IC50: 1500 nM for the first, 12000 nM for the second.

`COc1cccc(Sc2nc3c(N)ncnc3n2CC(=O)c2ccccc2)c1` [Example 298, 2-{6-Amino-8-[(3-methoxyphenyl)thio]-9H-purin-9-yl}-1-phenylethanone] and `Nc1ncnc2c1nc(Sc1cc3c(cc1Br)OCO3)n2CC1(c2ccc(Cl)cc2)CC1` [Example 221, 8-(6-Bromo-benzo[1,3]dioxol-5-ylsulfanyl)-9-[1-(4-chloro-phenyl)-cyclopropylmethyl]-9H-purin-6-ylamine] cannot be ordered by IC50: greater than 25000 nM for the first, greater than 9000 nM for the second.

`Cc1ccsc1Sc1nc2c(N)ncnc2n1CCC1CCN(C=O)CC1` [Example 546, 4-(2-{6-Amino-8-[(3-methyl-2-thienyl)thio]-9 H-purin-9-yl}ethyl)piperidine-1-carbaldehyde] and `COc1ccc(OC)c(Sc2nc3c(N)ncn(CCc4ccc(OC)c(OC)c4)c-3n2)c1` [Example 22, 3-[2-(3,4-dimethoxy-phenyl)-ethyl]-8-(2,5-dimethoxy-phenylsulfanyl)-3H-purin-6-ylamine] cannot be ordered by IC50: greater than 5000 nM for the first, greater than 10000 nM for the second.
